Experimental findings from US8466181B2, “1,2,3-triazole-imidazole compounds” (Hoffmann-La Roche Inc., priority 2010, dated 2013) are described below.

Where two headings read alike, the source gives them in different places.

The assay concerns the target T1, human GABA A receptor α5β3γ2 (GABA Aa5) (Homo sapiens, UniProt P18507+P31644).
T1 construct: expressed in transfected cells; host or cells: HEK293 cells, transiently transfected; membranes prepared
Nature of the assay: [3H]flumazenil competition binding, HEK293 cells expressing human receptors. Here is the method: The ability of compounds present invention to bind to GABA A receptor subtypes was determined by competition for [^3H]flumazenil (85 Ci/mmol; Roche) binding to HEK293 cells expressing rat (stably transfected) or human (transiently transfected) receptors of composition α1β2/3γ2, α2β3γ2, α3β3γ2 and α5β3γ2.
Cell pellets were suspended in Krebs-tris buffer (4.8 mM KCl, 1.2 mM CaCl2, 1.2 mM MgCl2, 120 mM NaCl, 15 mM Tris; pH 7.5; binding assay buffer), homogenized by polytron for ca. 20 sec on ice and centrifuged for 60 min at 4° C. (50000 g; Sorvall, rotor: SM24=20000 rpm). The cell pellets were resuspended in Krebs-tris buffer and homogenized by polytron for ca. 15 sec on ice. Protein was measured (Bradford method, Bio-Rad) and aliquots of 1 mL were prepared and stored at −80° C.
Assays were incubated to equilibrium for 1 hour at 4° C. and harvested onto GF/C uni-filters (Packard) by filtration using a Packard harvester and washing with ice-cold wash buffer (50 mM Tris; pH 7.5). After drying, filter-retained radioactivity was detected by liquid scintillation counting.
Ki values were calculated using Excel-Fit (Microsoft) and are the means of two determinations.
Representative test results, obtained by the above described assay measuring binding affinity to HEK293 cells expressing human (h) receptors, are shown in Table 1 below.

[1] abbreviates: displacement of [3H]flumazenil 0.5 nM, HEK293 transiently transfected human receptors, means of two determinations, read-out: hKi (GABA Aa5).

As to `Cc1nnn(-c2ccccc2F)c1-c1cn(-c2ccc(C(=O)NC3CC3)cn2)cn1` [Example 52, N-Cyclopropyl-6-(4-(1-(2-fluorophenyl)-4-methyl-1H-1,2,3-triazol-5-yl)-1H-imidazol-1-yl)nicotinamide], the Ki under setting [1] was 10.9 nM.

For `Cn1nnc(-c2ccc(F)cc2)c1-c1cn(-c2ccc(C(=O)NC3(C)COC3)cc2)cn1` [Example 5, 4-{4-[5-(4-Fluoro-phenyl)-3-methyl-3H-[1,2,3]triazol-4-yl]-imidazol-1-yl}-N-(3-methyl-oxetan-3-yl)-benzamide], the Ki under setting [1] is 23.8 nM.

As to `COC(=O)c1ccc(-n2cnc(-c3c(-c4ccc(F)cc4)nnn3C)c2)cc1` [Example 2, 4-{4-[5-(4-Fluoro-phenyl)-3-methyl-3H-[1,2,3]triazol-4-yl]-imidazol-1-yl}-benzoic acid methyl ester], the Ki under setting [1] was 41.2 nM.

On to `Cc1nnn(-c2ccccc2F)c1-c1cn(-c2ccc(C(=O)NC3CCOCC3)cn2)cn1` [Example 46, 6-(4-(1-(2-Fluorophenyl)-4-methyl-1H-1,2,3-triazol-5-yl)-1H-imidazol-1-yl)-N-(tetrahydro-2H-pyran-4-yl)nicotinamide], for which, under setting [1], the Ki was 49 nM.

Take `Cc1nnn(-c2ccc(F)cc2)c1-c1cn(-c2ccc(C(=O)NC3(C)COC3)cn2)cn1` [Example 38, 6-(4-(1-(4-Fluorophenyl)-4-methyl-1H-1,2,3-triazol-5-yl)-1H-imidazol-1-yl)-N-(3-methyloxetan-3-yl)nicotinamide]: the Ki under setting [1] was 9.6 nM.

With `CC(C)NC(=O)c1ccc(-n2cnc(-c3c(-c4ccc(F)cc4)nnn3C)c2)nc1` [Example 11, 6-{4-[5-(4-Fluoro-phenyl)-3-methyl-3H-[1,2,3]triazol-4-yl]-imidazol-1-yl}-N-isopropyl-nicotinamide], the Ki under setting [1] stood at 14.7 nM.

Turning to `Cc1nnn(-c2ccccc2F)c1-c1cn(-c2ccc(C(=O)NC(C)(C)CO)cn2)cn1` [Example 47, 6-(4-(1-(2-Fluorophenyl)-4-methyl-1H-1,2,3-triazol-5-yl)-1H-imidazol-1-yl)-N-(1-hydroxy-2-methylpropan-2-yl)nicotinamide], the Ki under setting [1] was found to be 51.7 nM.

Turning to `COC(=O)c1ccc(-n2cnc(-c3c(C)nnn3-c3ccccc3F)c2)cc1` [Example 33, Methyl 4-(4-(1-(2-fluorophenyl)-4-methyl-1H-1,2,3-triazol-5-yl)-1H-imidazol-1-yl)benzoate], the Ki under setting [1] worked out at 34.5 nM.

For the molecule `Cn1nnc(-c2ccccc2F)c1-c1cn(-c2ccc(C(=O)NC3(C)COC3)cn2)cn1` [Example 27, 6-(4-(4-(2-Fluorophenyl)-1-methyl-1H-1,2,3-triazol-5-yl)-1H-imidazol-1-yl)-N-(3-methyloxetan-3-yl)nicotinamide], under setting [1], the Ki was found to be 16.1 nM.

For the molecule `Cn1nnc(-c2ccccc2F)c1-c1cn(-c2ccc(C(F)(F)F)cc2)cn1` [Example 8, 4-(2-Fluorophenyl)-1-methyl-5-(1-(4-(trifluoromethyl)phenyl)-1H-imidazol-4-yl)-1H-1,2,3-triazole], the Ki under setting [1] is 84.3 nM.

As for `Cn1nnc(-c2ccccc2F)c1-c1cn(-c2ccc(C(=O)NC3CCOCC3)cn2)cn1` [Example 22, 6-(4-(4-(2-Fluorophenyl)-1-methyl-1H-1,2,3-triazol-5-yl)-1H-imidazol-1-yl)-N-(tetrahydro-2H-pyran-4-yl)nicotinamide], the Ki under setting [1] was found to be 43.3 nM.

For `Cn1nnc(-c2ccc(F)cc2)c1-c1cn(-c2ccc(C(=O)NC3CCOCC3)cc2)cn1` [Example 4, 4-{4-[5-(4-Fluoro-phenyl)-3-methyl-3H-[1,2,3]triazol-4-yl]-imidazol-1-yl}-N-(tetrahydropyran-4-yl)-benzamide], the Ki under setting [1] worked out at 36.6 nM.

In the case of `Cn1nnc(-c2ccccc2F)c1-c1cn(-c2ccc(C(=O)N3CC4(COC4)C3)cn2)cn1` [Example 26, (6-(4-(4-(2-Fluorophenyl)-1-methyl-1H-1,2,3-triazol-5-yl)-1H-imidazol-1-yl)pyridin-3-yl)(2-oxa-6-azaspiro[3.3]heptan-6-yl)methanone], under setting [1], the Ki was found to be 66.5 nM.

Turning to `Cc1nnn(-c2ccccc2F)c1-c1cn(-c2ccc(C(=O)NN3CCOCC3)cn2)cn1` [Example 51, 6-(4-(1-(2-Fluorophenyl)-4-methyl-1H-1,2,3-triazol-5-yl)-1H-imidazol-1-yl)-N-morpholinonicotinamide], the Ki under setting [1] amounted to 50.5 nM.

Take `Cc1nnn(-c2ccccc2F)c1-c1cn(-c2ccc(C(=O)NCC3CC3)cn2)cn1` [Example 53, N-(Cyclopropylmethyl)-6-(4-(1-(2-fluorophenyl)-4-methyl-1H-1,2,3-triazol-5-yl)-1H-imidazol-1-yl)nicotinamide]: the Ki under setting [1] stood at 32.7 nM.

Take `CC(C)NC(=O)c1ccc(-n2cnc(-c3c(-c4ccccc4F)nnn3C)c2)nc1` [Example 23, 6-(4-(4-(2-Fluorophenyl)-1-methyl-1H-1,2,3-triazol-5-yl)-1H-imidazol-1-yl)-N-isopropylnicotinamide]: the Ki under setting [1] came to 54.9 nM.

On to `Cn1nnc(-c2ccccc2F)c1-c1cn(-c2ccc(C(=O)NC3CC3)cn2)cn1` [Example 29, N-Cyclopropyl-6-(4-(4-(2-fluorophenyl)-1-methyl-1H-1,2,3-triazol-5-yl)-1H-imidazol-1-yl)nicotinamide], for which the Ki under setting [1] amounted to 9.5 nM.

Regarding `Cn1nnc(-c2ccc(F)cc2)c1-c1cn(-c2ccc(C(N)=O)cn2)cn1` [Example 16, 6-(4-(4-(4-Fluorophenyl)-1-methyl-1H-1,2,3-triazol-5-yl)-1H-imidazol-1-yl)nicotinamide], the Ki under setting [1] was found to be 12.1 nM.

In the case of `Cc1nnn(-c2ccccc2F)c1-c1cn(-c2ccc(C(=O)N3CC4(COC4)C3)cn2)cn1` [Example 49, (6-(4-(1-(2-Fluorophenyl)-4-methyl-1H-1,2,3-triazol-5-yl)-1H-imidazol-1-yl)pyridin-3-yl)(2-oxa-6-azaspiro[3.3]heptan-6-yl)methanone], the Ki under setting [1] was found to be 90 nM.

As to `CC(=O)c1ccc(-n2cnc(-c3c(-c4ccccc4F)nnn3C)c2)cc1` [Example 10, 1-(4-(4-(4-(2-Fluorophenyl)-1-methyl-1H-1,2,3-triazol-5-yl)-1H-imidazol-1-yl)phenyl)ethanone], the Ki was 29.6 nM.

With `Cc1nnn(-c2ccc(F)cc2)c1-c1cn(-c2ccc(C(=O)NC3CCOCC3)cn2)cn1` [Example 37, 6-{4-[3-(4-Fluoro-phenyl)-5-methyl-3H-[1,2,3]triazol-4-yl]-imidazol-1-yl}-N-(tetrahydropyran-4-yl)-nicotinamide], the Ki under setting [1] came to 25.9 nM.

As for `Cn1nnc(-c2ccc(F)cc2)c1-c1cn(-c2ccc(C(=O)N3CC4(COC4)C3)cn2)cn1` [Example 14, (6-{4-[5-(4-Fluoro-phenyl)-3-methyl-3H-[1,2,3]triazol-4-yl]-imidazol-1-yl}-pyridin-3-yl)-(2-oxa-6-aza-spiro[3.3]hept-6-yl)-methanone], under setting [1], the Ki stood at 37.6 nM.

Regarding `Cc1nnn(-c2ccc(F)cc2)c1-c1cn(-c2ccc(C(N)=O)cn2)cn1` [Example 40, 6-(4-(1-(4-Fluorophenyl)-4-methyl-1H-1,2,3-triazol-5-yl)-1H-imidazol-1-yl)nicotinamide], the Ki under setting [1] was found to be 12.6 nM.

As to `Cc1nnn(-c2ccc(F)cc2)c1-c1cn(-c2ccc(C(=O)N3CC4(COC4)C3)cn2)cn1` [Example 39, (6-(4-(1-(4-Fluorophenyl)-4-methyl-1H-1,2,3-triazol-5-yl)-1H-imidazol-1-yl)pyridin-3-yl)(2-oxa-6-azaspiro[3.3]heptan-6-yl)methanone], the Ki under setting [1] worked out at 35.8 nM.
